In patent US20050004126A1 (priority 2001, published 2005) one finds IC50 data, which are given here for 34 compounds.

The target in this assay is MMP-13CD (catalytic domain of collagenase 3) (Homo sapiens, UniProt P45452). As to the kind of experiment: biochemical.

Structures are written as SMILES. pIC50: −log10 of the molar value.
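Further: inhibition of enzymatic thiopeptolide substrate cleavage (100 µM) in pH 6.0 MES buffer with CaCl2 and DTNB, comparing hydrolysis with versus without inhibitor.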

Method: They measure the amount by which a test compound reduces the hydrolysis of a thiopeptolide substrate caused by a matrix metalloproteinase enzyme.
Thiopeptolide substrates show virtually no decomposition or hydrolysis in the absence of a matrix metalloproteinase enzyme. A typical thiopeptolide substrate commonly utilized for assays is Ac-Pro-Leu-Gly-thioester-Leu-Leu-Gly-OEt. A 100 μL assay mixture will contain 50 mM of 2-morpholinoethane sulfonic acid monohydrate (MES, pH 6.0) 10 mM CaCl2, 100 μM thiopeptolide substrate, and 1 mM 5,5′-dithio-bis-(2-nitro-benzoic acid) (DTNB). […] Assays are carried out with and without matrix metalloproteinase inhibitor compounds, and the amount of hydrolysis is compared for a determination of inhibitory activity of the test compounds.

In general, pIC50 refers to −log10 of the IC50, conventionally taken in molar units. As to `O=C(OCc1ccc2c(c1)OCO2)c1ccc2[nH]c(=O)n(Cc3ccccc3)c(=O)c2c1` [Synthesis Example 45, Benzo[1,3]dioxol-5-ylmethyl 3-benzyl-2,4-dioxo-1,2,3,4-tetrahydroquinazoline-6-carboxylate], the pIC50 is 8.15. The compound `Cn1c(=O)n(Cc2ccc3c(c2)OCO3)c(=O)c2cc(C(=O)NCc3ccc4c(c3)OCO4)ccc21` [Synthesis Example 35, 3-(Benzo[1,3]dioxol-5-ylmethyl)-1-methyl-2,4-dioxo-1,2,3,4-tetrahydroquinazoline-6-carboxylic acid (benzo[1,3]dioxol-5-ylmethyl)amide] gave a pIC50 of 8.52.

`O=C(OCc1ccccc1)c1ccc2[nH]c(=O)n(Cc3ccccc3)c(=O)c2c1` [Synthesis Example 41, Benzyl 3-benzyl-2,4-dioxo-1,2,3,4-tetrahydroquinazoline-6-carboxylate] showed a pIC50 of 7.54. `O=C(OCc1ccncc1)c1ccc2[nH]c(=O)n(Cc3ccccc3)c(=O)c2c1` [Synthesis Example 43, 4-Pyridylmethyl 3-benzyl-2,4-dioxo-1,2,3,4-tetrahydroquinazoline-6-carboxylate] had a pIC50 of 7.96. For `COC(=O)c1ccc(Cn2c(=O)c3cc(C(=O)NCc4ccc(OC)cc4)ccc3n(C)c2=O)cc1` [Synthesis Example 38, 4-[6-(4-Methoxy-benzylcarbamoyl)-1-methyl-2,4-dioxo-1,4-dihydro-2H-quinazolin-3-ylmethyl]-benzoic acid methyl ester] the value was 8.40. In turn, `Cn1c(=O)[nH]c(=O)c2cc(C(=O)NCc3ccc4c(c3)OCO4)ccc21` [Synthesis Example 37, 1-Methyl-2,4-dioxo-1,2,3,4-tetrahydroquinazoline-6-carboxylic acid (benzo[1,3]dioxol-5-ylmethyl)amide] showed a pIC50 of 6.04. With `COc1ccc(Cn2c(=O)c3cc(C(=O)NCc4ccc5c(c4)OCO5)ccc3n(C)c2=O)cc1` [Synthesis Example 28, 3-(4-Methoxybenzyl)-1-methyl-2,4-dioxo-1,2,3,4-tetrahydroquinazoline-6-carboxylic acid (benzo[1,3]dioxol-5-ylmethyl)amide], the pIC50 was 8.05. On to `Cn1c(=O)n(C/C=C/c2ccccc2)c(=O)c2cc(C(=O)NCc3ccc4c(c3)OCO4)ccc21` [Synthesis Example 40, 1-Methyl-2,4-dioxo-3-((E)-3-phenylallyl)-1,2,3,4-tetrahydroquinazoline-6-carboxylic acid (benzo[1,3]dioxol-5-ylmethyl)amide], for which the pIC50 was 7.66. `O=C(NCc1ccc2c(c1)OCO2)c1ccc2[nH]c(=O)n(Cc3cccs3)c(=O)c2c1` [Synthesis Example 30, 2,4-Dioxo-3-(thien-2-ylmethyl)-1,2,3,4-tetrahydroquinazoline-6-carboxylic acid (benzo[1,3]dioxol-5-ylmethyl)amide]: the pIC50 was 7.54. The value for `Cn1c(=O)n(Cc2ccccc2)c(=O)c2cc(C(=O)NCc3ccccc3)ccc21` [3-Benzyl-1-methyl-2,4-dioxo-1,2,3,4-tetrahydroquinazoline-6-carboxylic acid benzylamide] was 7.24. Consider `O=C(OCc1ccncc1)c1ccc2[nH]c(=O)n(Cc3cccs3)c(=O)c2c1` [Synthesis Example 47, 4-Pyridylmethyl 2,4-dioxo-3-thien-2-ylmethyl-1,2,3,4-tetrahydroquinazoline-6-carboxylate], for which the pIC50 is 7.80. Compound `COC(=O)c1ccc(CNC(=O)c2ccc3c(c2)c(=O)n(Cc2ccccc2)c(=O)n3C)cc1` [Methyl 4-({[1-(3-benzyl-1-methyl-2,4-dioxo-1,2,3,4-tetrahydroquin-azolin-6-yl)methanoyl]amino}methyl)benzoate] showed a pIC50 of 5.65. The value for `COC(=O)c1ccc(Cn2c(=O)c3cc(C(=O)NCc4ccc(OC)cc4)ncc3n(C)c2=O)cc1` [Synthesis Example 54, Methyl 4-[6-(4-Methoxy-benzylcarbamoyl)-1-methyl-2,4-dioxo-1,4-dihydro-2H-pyrido[3,4-d]pyrimidin-3-ylmethyl]-benzoate] was 8.77; that for `COc1ccc(Cn2c(=O)[nH]c3ccc(C(=O)NCc4ccc5c(c4)OCO5)cc3c2=O)cc1` [Synthesis Example 27, 3-(4-Methoxybenzyl)-2,4-dioxo-1,2,3,4-tetrahydroquinazoline-6-carboxylic acid (benzo[1,3]dioxol-5-ylmethyl)amide] was 7.82. In the case of `O=C(NCc1cccnc1)c1ccc2[nH]c(=O)n(Cc3ccccc3)c(=O)c2c1` [3-Benzyl-2,4-dioxo-1,2,3,4-tetrahydroquinazoline-6-carboxylic acid (3-pyridylmethyl)amide], the pIC50 is 6.44. For `COc1ccc(CNC(=O)c2cnc3c(c2)c(=O)n(Cc2ccc(F)cc2)c(=O)n3C)cc1` [Synthesis Example 52, 3-(4-Fluoro-benzyl)-1-methyl-2,4-dioxo-1,2,3,4-tetrahydro-pyrido[2,3-d]pyrimidine-6-carboxylic acid 4-methoxy-benzylamide] the value was 7.49.

In turn, `O=C(NCc1ccc2c(c1)OCO2)c1ccc2[nH]c(=O)n(Cc3ccccc3)c(=O)c2c1` [Synthesis Example 23, 3-Benzyl-2,4-dioxo-1,2,3,4-tetrahydroquinazoline-6-carboxylic acid (benzo[1,3]dioxol-5-ylmethyl)amide] had a pIC50 of 7.68. `O=C(OCc1ccncc1)c1cnc2[nH]c(=O)n(Cc3ccccc3)c(=O)c2c1` [4-Pyridylmethyl 3-benzyl-2,4-dioxo-1,2,3,4-tetrahydropyrido[2,3-d]-pyrimidine-6-carboxylate] showed a pIC50 of 7.21. For `O=C(NCc1ccc2c(c1)OCO2)c1ccc2[nH]c(=O)n(Cc3ccc4c(c3)OCO4)c(=O)c2c1` [Synthesis Example 34, 3-(Benzo[1,3]dioxol-5-ylmethyl)-2,4-dioxo-1,2,3,4-tetrahydroquinazoline-6-carboxylic acid (benzo[1,3]dioxol-5-ylmethyl)amide] the value was 7.77; for `O=C(NCc1ccccc1)c1ccc2[nH]c(=O)n(Cc3cccs3)c(=O)c2c1` [2,4-Dioxo-3-thien-2-ylmethyl-1,2,3,4-tetrahydroquinazoline-6-carboxylic acid benzylamide], 6.52; for `Cn1c(=O)n(Cc2cccs2)c(=O)c2cc(C(=O)NCc3ccc4c(c3)OCO4)ccc21` [Synthesis Example 31, 1-Methyl-2,4-dioxo-3-(thien-2-ylmethyl)-1,2,3,4-tetrahydroquinazoline-6-carboxylic acid (benzo[1,3]dioxol-5-ylmethyl)amide], 8.05. On to `O=C(NCc1ccc2c(c1)OCO2)c1ccc2c(c1)c(=O)n(Cc1ccccc1)c(=O)n2CC1CC1` [3-Benzyl-1-cyclopropylmethyl-2,4-dioxo-1,2,3,4-tetrahydroquin-azoline-6-carboxylic acid (benzo[1,3]dioxol-5-ylmethyl)amide], for which the pIC50 is 6.80. Consider `Cc1ccc(CNC(=O)c2ccc3[nH]c(=O)n(Cc4ccccc4)c(=O)c3c2)cc1` [3-Benzyl-2,4-dioxo-1,2,3,4-tetrahydroquinazoline-6-carboxylic acid 4-methylbenzylamide], for which the pIC50 was 5.88. For the compound `O=C(NCc1ccccc1)c1ccc2[nH]c(=O)n(Cc3ccccc3)c(=O)c2c1` [Synthesis Example 22, 3-Benzyl-2,4-dioxo-1,2,3,4-tetrahydroquinazoline-6-carboxylic acid benzylamide], the pIC50 was 6.71. The value for `COc1ccc(CNC(=O)c2ccc3c(c2)c(=O)n(Cc2ccccc2)c(=O)n3C)cc1` [Synthesis Example 26, 3-Benzyl-1-methyl-2,4-dioxo-1,2,3,4-tetrahydroquinazoline-6-carboxylic acid 4-methoxybenzylamide] was 7.92; that for `COc1ccc(CNC(=O)c2cnc3c(c2)c(=O)n(Cc2ccc(C(=O)O)cc2)c(=O)n3C)cc1` [Synthesis Example 50, 4-[6-(4-Methoxy-benzylcarbamoyl)-1-methyl-2,4-dioxo-1,4-dihydro-2H-pyrido[2,3-d]pyrimidin-3-ylmethyl]-benzoic acid] was 8.80. Take `O=C(NCc1cccs1)c1ccc2[nH]c(=O)n(Cc3ccccc3)c(=O)c2c1` [3-Benzyl-2,4-dioxo-1,2,3,4-tetrahydroquinazoline-6-carboxylic acid (2-thienylmethyl)amide]: the pIC50 was 5.73. For `Cn1c(=O)n(Cc2ccccc2)c(=O)c2cc(C(=O)OCc3ccncc3)ccc21` [Synthesis Example 44, 4-Pyridylmethyl 3-benzyl-1-methyl-2,4-dioxo-1,2,3,4-tetrahydroquinazoline-6-carboxylate] the value was 8.40; for `CCn1c(=O)n(Cc2ccccc2)c(=O)c2cc(C(=O)NCc3ccc4c(c3)OCO4)ccc21` [Synthesis Example 36, 3-Benzyl-1-ethyl-2,4-dioxo-1,2,3,4-tetrahydroquinazoline-6-carboxylic acid (benzo[1,3]dioxol-5-ylmethyl)amide], 7.59; for `O=C(NCc1ccncc1)c1ccc2[nH]c(=O)n(Cc3ccccc3)c(=O)c2c1` [3-Benzyl-2,4-dioxo-1,2,3,4-tetrahydroquinazoline-6-carboxylic acid (4-pyridylmethyl)amide], 6.74.

`Cn1c(=O)n(Cc2ccccc2)c(=O)c2cc(C(=O)NCc3ccc4c(c3)OCO4)ccc21` [Synthesis Example 24] gave a pIC50 of 8.30.

As for `Cn1c(=O)n(Cc2ccc(Cl)cc2)c(=O)c2cc(C(=O)NCc3ccc4c(c3)OCO4)ccc21` [Synthesis Example 33, 3-(4-Chlorobenzyl)-1-methyl-2,4-dioxo-1,2,3,4-tetrahydroquinazoline-6-carboxylic acid (benzo[1,3]dioxol-5-ylmethyl)amide], the pIC50 is 8.05. With `Cn1c(=O)n(Cc2ccccc2)c(=O)c2cc(C(=O)NCc3ccncc3)ccc21` [3-Benzyl-1-methyl-2,4-dioxo-1,2,3,4-tetrahydroquinazoline-6-carboxylic acid (4-pyridylmethyl)amide], the pIC50 was 7.29. Regarding `O=C(NCc1ccc2c(c1)OCO2)c1ccc2[nH]c(=O)n(Cc3ccncc3)c(=O)c2c1` [2,4-Dioxo-3-pyrid-4-ylmethyl-1,2,3,4-tetrahydroquinazoline-6-carboxylic acid (benzo[1,3]dioxol-5-ylmethyl)amide], the pIC50 is 7.29.
